# Experimental data as given in PubChem BioAssay AID504313 (Emory University Molecular Libraries Screening Center, 2011).
# The source made the active and inactive calls. The rule behind the calls is not given here.
# Molecular target: X-box-binding protein 1 (Homo sapiens) (UniProt P17861)
# Test: XBP1 reporter suppression in cells – counter-screen, dose response (AID 504313);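 note: CHO cells carrying an XBP1 reporter stimulated with tunicamycin; potency is for inhibition of the tunicamycin-induced reporter signal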
# Details: XBP1 reporter cell assay, percent of control
row,SMILES,IC50
1,O=C(c1ccc(COc2ccc(Cl)cc2)o1)N1N=C(C(F)F)CC1(O)C(F)F (stereo unspecified),inactive
2,O=C(N=Nc1c(O)n(Cc2ccccc2)c2ccccc12)c1cc2ccccc2cc1O,inactive
3,O=S1(=O)C=C(Sc2nc3ccccc3s2)c2ccccc21,2.74 µM
4,CC(C)(C)C1C/C(=C/c2ccco2)C(=O)/C(=C/c2ccco2)C1 (stereo unspecified),> 10 µM (inactive)
5,Cc1ccc2[nH]c3c(c2c1)CN(C(=O)CN1CCN(c2cccc(C)c2C)CC1)CC3,> 10 µM (inactive)
6,Cc1cccc(Nc2nc(N)c([N+](=O)[O-])c(N3CC(C)CC(C)C3)n2)c1 (stereo unspecified),inactive
7,CS(=O)(=O)c1ncc(Cl)c(C(=O)Nc2ccc(N3CCOCC3)cc2)n1,inactive
8,CCCCC(CC)Cn1c(N)c(C#N)c2nc3ccccc3nc21 (stereo unspecified),inactive
9,FC(F)(F)c1cccc(CN2CCC(c3cc(-c4cccs4)n[nH]3)CC2)c1,> 10 µM (inactive)
10,Cc1ccc2nc(-c3cc(-c4ccccc4)no3)cn2c1,> 10 µM (inactive)
11,CCc1ccc(OCCNC(=O)c2ccccc2SCc2ccccc2)cc1,> 10 µM (inactive)
12,Cc1cc(C)cc(OC2CCCCC2NS(=O)(=O)c2ccccc2)c1 (stereo unspecified),> 10 µM (inactive)
13,Cc1cc(/C=N/n2cnnc2)c(C)n1-c1ccc(OCc2ccccc2F)cc1,4.85 µM
14,CCc1ccc(NP(=O)(Oc2ccccc2F)Oc2ccccc2F)cc1,> 10 µM (inactive)
15,Cc1ccc(OCC(=O)N2CCN(c3nnc(-c4ccc(C)cc4)c4ccccc34)CC2)cc1,inactive
16,O=C(CN1CCN(c2ncc(C(F)(F)F)cc2Cl)CC1)NCCNc1ncc(C(F)(F)F)cc1Cl,inactive
17,CCCNC(=O)c1nnsc1S(=O)c1ccc(Cl)cc1 (stereo unspecified),inactive
18,CCN1/C(=C/c2ccc3cc(C)ccc3[n+]2C)Sc2ccc3sccc3c21,2.28 µM
19,N#C/C(=C\c1ccc([N+](=O)[O-])o1)C(=O)Nc1ccc(F)cc1,> 10 µM (inactive)
20,CCCc1cc(-c2nc(N)ncc2-c2ccc3c(c2)OCCCO3)c(O)cc1OC,5.01 µM
21,Clc1ccc2c(N/N=C/c3ccc(Br)cc3)ccnc2c1,> 10 µM (inactive)

row,SMILES,IC50
1,CC(C)(C)c1ccc(OCCNC(=S)Nc2ccccc2)cc1,inactive
2,C=C1C(=O)O[C@H]2C[C@@H](C)[C@@H]3C=CC(=O)[C@@]3(C)C[C@H]12,inactive
3,O=c1oc2ccccc2c(Cl)c1CN1CCCCC1,inactive
4,Cn1c(=O)c(C(=O)Nc2ncccc2O)c(O)c2ccccc21,> 10 µM (inactive)
5,CC1=C(C)/C(=N\OS(=O)(=O)c2ccccc2)C=CC1=O,2.89 µM
6,CC(C)(C)c1nnc(N/N=C/c2cc(Br)ccc2O)n(N)c1=O,6.02 µM
7,CC(C)(C)OC(=O)CNC(=O)c1[nH]cnc1C(=O)Nc1ccc(Cl)cc1,inactive
8,CCOC(=O)c1c(N)sc(C(O)(C(F)(F)F)C(F)(F)F)c1-c1ccc(Cl)cc1,inactive
9,O=C(NCc1nc(-c2ccc(C(F)(F)F)cc2)no1)Nc1ccc(OC(F)(F)F)cc1,4.26 µM
10,O=c1[nH]c(NNC(=S)NC2CCCCC2)nc2c1C1(CCCC1)Cc1ccccc1-2,> 10 µM (inactive)
11,COc1ccccc1-c1cc(C(F)(F)F)nc(S(=O)(=O)CCCC(=O)Nc2cccnc2Cl)n1,> 10 µM (inactive)
12,O=C(On1c(-c2ccccc2)nc2ccccc2c1=O)c1ccco1,> 10 µM (inactive)
13,Cc1nc(Nc2ccc(F)cc2)[nH]c(=O)c1CCC(C)C,inactive
14,Cc1ccc(-c2nc(C(Cl)Cl)c3ccccc3n2)cc1,5.22 µM
15,CC(C)(C)C1CCC(C(=O)OCC(=O)c2ccc[nH]2)CC1 (stereo unspecified),inactive
16,CC1=CC2/C=C(\C)CCC(O)C(O)/C=C/C(=O)C23C(=O)NC(CC(C)C)C3C1C (stereo unspecified),inactive
17,CCOC(=O)/C=C/S(=O)(=O)c1ccc(NC(C)=O)cc1,inactive
18,O=C(Cc1ccccc1)Nc1cccc(N2C(=O)C=CC2=O)c1,inactive
19,CCSc1nc2ccccc2n1C(=O)/C=C/c1ccc(OC)c(OC)c1,4.84 µM
20,O=C1N(c2ccccc2)C[C@@H]2C[C@@H](c3cccs3)N3CCC[C@@]123,2.84 µM
